Experimental data from ChEMBL document CHEMBL4421722, “Inhibitors of protein prenyltransferases” (2013).

Species: Rattus norvegicus
Assay: Inhibition of rat recombinant geranylgeranyltransferase type I expressed in Escherichia coli assessed as residual enzyme activity for geranylgeranylation of K-Ras4B at 50 uM incubated for 30 mins in presence of [3H]GGPP by scintillation counting assay relative to control

Structure (SMILES) | Activity
COc1ccc([C@@H]2CC=C(C(=O)O)[C@H](c3ccc(C(C)(C)C)cc3)N2S(=O)(=O)c2ccccc2)cc1 | 82.2%
Cc1ccc(S(=O)(=O)N2[C@@H](c3ccc(C(C)(C)C)cc3)C(C(=O)O)=CC[C@H]2c2cccc(C)c2)cc1 | 56.1%
Cc1ccc([C@H]2C(C(=O)O)=CC[C@@H](c3ccc(F)cc3)N2S(=O)(=O)c2ccc(C)cc2)cc1 | 54.8%
Cc1ccccc1S(=O)(=O)N1C[C@@H](C(=O)O)[C@H](SCc2ccc(C(C)(C)C)cc2)C[C@H]1c1ccc(Cl)cc1 | 43.1%
Cc1ccc([C@H]2C(C(=O)O)=CC[C@@H](c3ccc(C)cc3)N2S(=O)(=O)c2ccccc2)cc1 | 99.8%
CCS[C@@H]1C[C@@H](c2ccc(C)cc2)N(S(=O)(=O)c2ccc(C)cc2)C[C@H]1C(=O)O | 90.1%
Cc1ccc([C@@H]2C[C@@H](SCCc3ccccc3)[C@H](C(=O)O)CN2S(=O)(=O)c2ccccc2)cc1 | 55.5%
Cc1ccc(S(=O)(=O)N2[C@@H](c3cccc(Cl)c3)C(C(=O)O)=CC[C@H]2c2cccs2)cc1 | 79.5%
Cc1ccc([C@@H]2CC=C(C(=O)O)[C@H](c3ccc(C(C)(C)C)cc3)N2S(=O)(=O)c2ccccc2C)cc1 | 80.9%
COc1ccc([C@@H]2C[C@@H](SCc3ccc(C(C)(C)C)cc3)[C@H](C(=O)O)CN2S(=O)(=O)c2ccc(C)cc2)cc1OC | 78.9%
CCCS[C@@H]1C[C@@H](c2ccc(OCC)cc2)N(S(=O)(=O)c2ccc(C)cc2)C[C@H]1C(=O)O | 84.9%
Cc1ccc(S[C@@H]2C[C@@H](c3ccc4c(c3)OCO4)N(S(=O)(=O)c3ccc(C)cc3)C[C@H]2C(=O)O)cc1 | 77.8%
COc1ccc([C@@H]2CC=C(C(=O)O)[C@H](c3ccc(F)cc3)N2S(=O)(=O)c2ccc(C)cc2)cc1OC | 69.8%
Cc1ccc(S(=O)(=O)N2[C@@H](c3cccc(Br)c3)C(C(=O)O)=CC[C@H]2c2cccs2)cc1 | 55%
COc1ccc([C@@H]2C[C@@H](Sc3ccc(C)cc3)[C@H](C(=O)O)CN2S(=O)(=O)c2ccc(C)cc2)cc1 | 91.8%
COc1cc([C@@H]2C[C@@H](Sc3ccc(C)cc3)[C@H](C(=O)O)CN2S(=O)(=O)c2ccc(C)cc2)cc(OC)c1OC | 95.6%
CS(=O)(=O)N1[C@@H](c2cccc(Cl)c2)C(C(=O)O)=CC[C@H]1c1ccccc1 | 72.4%
Cc1ccc([C@@H]2C[C@@H](Sc3ccc(Cl)cc3)[C@H](C(=O)O)CN2S(=O)(=O)c2ccc(C)cc2)cc1 | 57%
COc1ccc(S[C@@H]2C[C@@H](c3cccc(OC)c3)N(S(=O)(=O)c3ccc(C)cc3)C[C@H]2C(=O)O)cc1 | 101%
Cc1ccc([C@@H]2C[C@@H](SCc3ccc(Cl)cc3)[C@H](C(=O)O)CN2S(C)(=O)=O)cc1 | 51.1%
Cc1ccc([C@@H]2CC=C(C(=O)O)[C@H](c3ccc(Cl)cc3)N2S(=O)(=O)c2ccccc2)cc1 | 79.9%
Cc1ccc(S[C@@H]2C[C@@H](c3ccc(Cl)cc3)N(S(=O)(=O)c3ccccc3C)C[C@H]2C(=O)O)cc1 | 74.8%
Cc1ccc(S(=O)(=O)N2[C@@H](c3cccc(C)c3)C(C(=O)O)=CC[C@H]2c2cccc(F)c2)cc1 | 60.5%
Cc1ccc([C@@H]2CC=C(C(=O)O)[C@H](c3cccc(C)c3)N2S(=O)(=O)c2ccccc2)cc1 | 69.8%
Cc1ccc(S(=O)(=O)N2C[C@@H](C(=O)O)[C@H](SC3CCCC3)C[C@H]2c2cccc(Cl)c2)cc1 | 88.7%
CCCS[C@@H]1C[C@@H](c2ccc(Cl)cc2)N(S(=O)(=O)c2ccc(C)cc2)C[C@H]1C(=O)O | 71%

Structure (SMILES) | Activity
COc1ccc([C@@H]2CC=C(C(=O)O)[C@H](c3cccc(Br)c3)N2S(=O)(=O)c2ccc(Cl)cc2)cc1 | 60.7%
COc1cccc([C@@H]2CC=C(C(=O)O)[C@H](c3ccc(Br)cc3)N2S(=O)(=O)c2ccc(C)cc2)c1 | 65.8%
COC(=O)c1ccccc1S(=O)(=O)N1[C@@H](c2ccc(Cl)cc2)C(C(=O)O)=CC[C@H]1c1ccc(C)cc1 | 81.4%
Cc1ccc([C@@H]2CC=C(C(=O)O)[C@H](c3ccc(F)cc3)N2S(=O)(=O)c2ccccc2)cc1 | 68.1%
CCCS[C@@H]1C[C@@H](c2ccc3c(c2)OCO3)N(S(=O)(=O)c2ccc(C)cc2)C[C@H]1C(=O)O | 83.6%
COc1ccc([C@@H]2CC=C(C(=O)O)[C@H](c3cccc(C)c3)N2S(=O)(=O)c2ccc(Cl)cc2)cc1 | 85.8%
Cc1ccc(S(=O)(=O)N2[C@@H](c3cccc(C)c3)C(C(=O)O)=CC[C@H]2c2cccc(Cl)c2)cc1 | 46.9%
Cc1cccc([C@H]2C(C(=O)O)=CC[C@@H](c3ccc(Cl)cc3)N2S(=O)(=O)c2ccc(Cl)cc2)c1 | 89.5%
COc1ccc([C@@H]2C[C@@H](Sc3ccccc3)[C@H](C(=O)O)CN2S(=O)(=O)c2ccc(C)cc2)cc1 | 79.6%
COc1ccc([C@@H]2C[C@@H](SC3CCCC3)[C@H](C(=O)O)CN2S(=O)(=O)c2ccccc2C)cc1 | 98.2%
COc1ccc([C@@H]2C[C@@H](SCc3ccccc3)[C@H](C(=O)O)CN2S(=O)(=O)c2ccc(C)cc2)cc1 | 105%
CCCCCS[C@@H]1C[C@@H](c2ccc(OCC)cc2)N(S(=O)(=O)c2ccc(C)cc2)C[C@H]1C(=O)O | 89.1%
Cc1ccc(S(=O)(=O)N2[C@@H](c3cccc(Br)c3)C(C(=O)O)=CC[C@H]2c2cccc(C)c2)cc1 | 39.1%
Cc1ccc([C@@H]2C[C@@H](Sc3ccc(Cl)cc3)[C@H](C(=O)O)CN2S(C)(=O)=O)cc1 | 105%
CCc1ccc([C@@H]2C[C@@H](SCC(C)C)[C@H](C(=O)O)CN2S(=O)(=O)c2ccc(C)cc2)cc1 | 68.5%
COc1ccc([C@@H]2C[C@@H](SCCc3ccccc3)[C@H](C(=O)O)CN2S(=O)(=O)c2ccc(Cl)cc2)cc1 | 75.3%
CCCCCS[C@@H]1C[C@@H](c2ccc(OC)cc2)N(S(=O)(=O)c2ccc(C)cc2)C[C@H]1C(=O)O | 86.7%
CCc1ccc([C@@H]2CC=C(C(=O)O)[C@H](c3cccc(Br)c3)N2S(=O)(=O)c2ccc(C)cc2)cc1 | 75.4%
C=CCS[C@@H]1C[C@@H](c2ccc(C)cc2)N(S(=O)(=O)c2ccc(Cl)cc2)C[C@H]1C(=O)O | 74.3%
COc1ccc([C@@H]2CC=C(C(=O)O)[C@H](c3cccc(Br)c3)N2S(=O)(=O)c2ccccc2)cc1 | 58.2%
Cc1ccccc1S(=O)(=O)N1C[C@@H](C(=O)O)[C@H](SCCC(C)C)C[C@H]1c1ccc(Cl)cc1 | 53.2%
COc1ccc([C@@H]2C[C@@H](Sc3ccc(C)cc3)[C@H](C(=O)O)CN2S(=O)(=O)c2ccccc2C)cc1 | 78.5%
CCCCCS[C@@H]1C[C@@H](c2ccc(C)cc2)N(S(=O)(=O)c2ccccc2)C[C@H]1C(=O)O | 81%
CCOc1ccc([C@@H]2CC=C(C(=O)O)[C@H](c3ccc(C(C)(C)C)cc3)N2S(=O)(=O)c2ccc(C)cc2)cc1 | 58.7%
CCCCCCS[C@@H]1C[C@@H](c2ccc(CC)cc2)N(S(=O)(=O)c2ccc(C)cc2)C[C@H]1C(=O)O | 70%
Cc1ccc([C@@H]2C[C@@H](SCCC(C)C)[C@H](C(=O)O)CN2S(=O)(=O)c2ccccc2)cc1 | 79.3%

Structure (SMILES) | Activity
CCCCS[C@@H]1C[C@@H](c2ccc(C)cc2)N(S(=O)(=O)c2ccc(Cl)cc2)C[C@H]1C(=O)O | 49.2%
Cc1ccc(S(=O)(=O)N2[C@@H](c3cccc(F)c3)C(C(=O)O)=CC[C@H]2c2ccc(Cl)c(Cl)c2)cc1 | 45.1%
COc1ccc([C@@H]2C=CCCN2S(=O)(=O)c2ccc(C)cc2)cc1 | 99.7%
Cc1ccc(S(=O)(=O)N2[C@@H](c3cccc(F)c3)C(C(=O)O)=CC[C@H]2c2ccccc2F)cc1 | 75%
C=CCS[C@@H]1C[C@@H](c2ccc(OC)cc2)N(S(=O)(=O)c2ccc(Cl)cc2)C[C@H]1C(=O)O | 95.4%
CC(=O)C1=CC[C@@H](c2ccc(C)cc2)N(S(=O)(=O)c2ccccc2[N+](=O)[O-])C1 | 110%
CCCCCS[C@@H]1C[C@@H](c2ccc(OC)c(OC)c2)N(S(=O)(=O)c2ccc(C)cc2)C[C@H]1C(=O)O | 109%
Cc1ccc([C@H]2C(C(=O)O)=CC[C@@H](c3cccc(C)c3)N2S(=O)(=O)c2ccc(C)cc2)cc1 | 82.4%
CCCCCCS[C@@H]1C[C@@H](c2ccc(OCC)cc2)N(S(=O)(=O)c2ccc(C)cc2)C[C@H]1C(=O)O | 67.6%
Cc1ccc([C@@H]2CC=C(C(=O)O)[C@H](c3cccc(Cl)c3)N2S(=O)(=O)c2ccccc2)cc1 | 56.7%
CCS[C@@H]1C[C@@H](c2ccc(C)cc2)N(S(=O)(=O)c2ccccc2C)C[C@H]1C(=O)O | 83.6%
COc1cccc([C@@H]2CC=C(C(=O)O)[C@H](c3ccc(F)cc3)N2S(=O)(=O)c2ccc(C)cc2)c1 | 65%
Cc1ccc(S(=O)(=O)N2C[C@@H](C(=O)O)[C@H](SC3CCCC3)C[C@H]2c2ccc3c(c2)OCO3)cc1 | 98.1%
COc1ccc([C@@H]2C[C@@H](SCCC(C)C)[C@H](C(=O)O)CN2S(=O)(=O)c2ccc(C)cc2)cc1 | 90%
CCCCCS[C@@H]1C[C@@H](c2ccc(OC)cc2)N(S(=O)(=O)c2ccc(Cl)cc2)C[C@H]1C(=O)O | 70.9%
CCCCS[C@@H]1C[C@@H](c2cccc(OC)c2)N(S(=O)(=O)c2ccc(C)cc2)C[C@H]1C(=O)O | 83.9%
Cc1ccc(S(=O)(=O)N2[C@@H](c3ccc(Cl)cc3)C(C(=O)O)=CC[C@H]2c2ccc(Cl)cc2)cc1 | 52.8%
CCS[C@@H]1C[C@@H](c2ccc(C)cc2)N(S(=O)(=O)c2ccccc2)C[C@H]1C(=O)O | 95%
COc1ccc([C@@H]2C[C@@H](Sc3ccc(Cl)cc3)[C@H](C(=O)O)CN2S(=O)(=O)c2ccc(C)cc2)cc1 | 55.3%
COc1ccc([C@@H]2C[C@@H](SCc3ccccc3)[C@H](C(=O)O)CN2S(=O)(=O)c2ccc(C)cc2)cc1OC | 54.5%
COc1ccc([C@@H]2C[C@@H](SCc3ccc(C(C)(C)C)cc3)[C@H](C(=O)O)CN2S(=O)(=O)c2ccccc2)cc1 | 53%
Cc1ccc(S(=O)(=O)N2[C@@H](c3ccc(C(C)(C)C)cc3)C(C(=O)O)=CC[C@H]2c2ccc(C(C)C)cc2)cc1 | 88.3%
CCCCS[C@@H]1C[C@@H](c2ccc(OC)cc2)N(S(=O)(=O)c2ccc(C)cc2)C[C@H]1C(=O)O | 74.5%
Cc1cccc([C@H]2C(C(=O)O)=CC[C@@H](c3ccccc3)N2S(C)(=O)=O)c1 | 68.1%
